Laboratory results from the NIST ThermoML archive (doi:10.1021/acs.jced.7b00694).

Test: xn = mol fraction of the nth substance listed
Conditions: Gas, Buoyancy - hydrostatic balance with magnetic suspension - one sinker

[HH] [hydrogen] + N#N
Conditions	mass density [kg/m3]
250.04 K, 11001 kPa, x2 = 0.9	137.2
250.04 K, 11002 kPa, x2 = 0.5001	76.353
250.04 K, 12001 kPa, x2 = 0.5001	82.831
250.04 K, 12002 kPa, x2 = 0.9	149.273
250.04 K, 13003 kPa, x2 = 0.5001	89.231
250.04 K, 13005 kPa, x2 = 0.9	161.179
250.04 K, 14001 kPa, x2 = 0.5001	95.51
250.04 K, 15005 kPa, x2 = 0.5001	101.724
250.04 K, 15008 kPa, x2 = 0.9	184.307
250.04 K, 16003 kPa, x2 = 0.5001	107.801
250.04 K, 17004 kPa, x2 = 0.5001	113.79
250.04 K, 17014 kPa, x2 = 0.9	206.478
250.04 K, 18007 kPa, x2 = 0.5001	119.684
250.04 K, 18011 kPa, x2 = 0.9	217.113
250.04 K, 19005 kPa, x2 = 0.5001	125.441
250.04 K, 19653 kPa, x2 = 0.9	234.021
250.04 K, 19934 kPa, x2 = 0.5001	130.7
250.05 K, 14008 kPa, x2 = 0.9	172.872
250.05 K, 16004 kPa, x2 = 0.9	195.446
250.05 K, 19014 kPa, x2 = 0.9	227.523
260.02 K, 999 kPa, x2 = 0.95	12.396
260.02 K, 1998 kPa, x2 = 0.95	24.915
260.02 K, 2987 kPa, x2 = 0.95	37.39
260.02 K, 3998 kPa, x2 = 0.95	50.206
260.02 K, 4998 kPa, x2 = 0.95	62.921
260.02 K, 5998 kPa, x2 = 0.95	75.652
260.02 K, 6997 kPa, x2 = 0.95	88.348
260.02 K, 8004 kPa, x2 = 0.95	101.083
260.02 K, 8999 kPa, x2 = 0.95	113.598
260.02 K, 10003 kPa, x2 = 0.95	126.121
260.02 K, 11004 kPa, x2 = 0.95	138.476
260.02 K, 12004 kPa, x2 = 0.95	150.65
260.02 K, 13007 kPa, x2 = 0.95	162.68
260.02 K, 13989 kPa, x2 = 0.95	174.256
260.02 K, 15009 kPa, x2 = 0.95	186.058
260.02 K, 16012 kPa, x2 = 0.95	197.415
260.02 K, 17003 kPa, x2 = 0.95	208.387
260.02 K, 18018 kPa, x2 = 0.95	219.361
260.02 K, 19020 kPa, x2 = 0.95	229.93
260.02 K, 19954 kPa, x2 = 0.95	239.529
260.03 K, 998 kPa, x2 = 0.9	11.773
260.03 K, 2000 kPa, x2 = 0.9	23.676
260.04 K, 2987 kPa, x2 = 0.9	35.462
260.04 K, 3998 kPa, x2 = 0.9	47.566
260.04 K, 4998 kPa, x2 = 0.9	59.561
260.04 K, 5998 kPa, x2 = 0.9	71.547
260.04 K, 6999 kPa, x2 = 0.9	83.502
260.04 K, 7999 kPa, x2 = 0.9	95.394
260.04 K, 9000 kPa, x2 = 0.9	107.209
260.04 K, 10001 kPa, x2 = 0.9	118.929
260.04 K, 11002 kPa, x2 = 0.9	130.507
260.04 K, 12001 kPa, x2 = 0.9	141.918
260.04 K, 13005 kPa, x2 = 0.9	153.211
260.04 K, 14004 kPa, x2 = 0.9	164.255
260.04 K, 15004 kPa, x2 = 0.9	175.116
260.04 K, 16007 kPa, x2 = 0.9	185.789
260.04 K, 17014 kPa, x2 = 0.9	196.279
260.04 K, 18009 kPa, x2 = 0.9	206.415
260.04 K, 19010 kPa, x2 = 0.9	216.361
260.04 K, 19736 kPa, x2 = 0.9	223.429
274.98 K, 997 kPa, x2 = 0.9	11.103
274.98 K, 1997 kPa, x2 = 0.9	22.285
274.99 K, 997 kPa, x2 = 0.95	11.688
274.99 K, 998 kPa, x2 = 0.5001	6.537
274.99 K, 1998 kPa, x2 = 0.5001	13.041
274.99 K, 1998 kPa, x2 = 0.95	23.478
274.99 K, 2986 kPa, x2 = 0.95	35.164
274.99 K, 2997 kPa, x2 = 0.9	33.49
274.99 K, 2998 kPa, x2 = 0.5001	19.501
274.99 K, 3997 kPa, x2 = 0.5001	25.901
274.99 K, 3997 kPa, x2 = 0.9	44.699
274.99 K, 3997 kPa, x2 = 0.95	47.147
274.99 K, 4997 kPa, x2 = 0.5001	32.248
274.99 K, 4997 kPa, x2 = 0.95	58.999
274.99 K, 4998 kPa, x2 = 0.9	55.901
274.99 K, 5997 kPa, x2 = 0.5001	38.535
274.99 K, 5998 kPa, x2 = 0.9	67.065
274.99 K, 5998 kPa, x2 = 0.95	70.84
274.99 K, 6997 kPa, x2 = 0.5001	44.758
274.99 K, 6998 kPa, x2 = 0.9	78.183
274.99 K, 6998 kPa, x2 = 0.95	82.636
274.99 K, 7997 kPa, x2 = 0.5001	50.911
274.99 K, 7998 kPa, x2 = 0.9	89.232
274.99 K, 8000 kPa, x2 = 0.95	94.385
274.99 K, 8998 kPa, x2 = 0.5001	57.003
274.99 K, 9000 kPa, x2 = 0.9	100.212
274.99 K, 9000 kPa, x2 = 0.95	106.023
274.99 K, 9998 kPa, x2 = 0.5001	63.009
274.99 K, 9998 kPa, x2 = 0.9	111.047
274.99 K, 10001 kPa, x2 = 0.95	117.586
274.99 K, 10998 kPa, x2 = 0.5001	68.948
274.99 K, 11001 kPa, x2 = 0.9	121.821
274.99 K, 11002 kPa, x2 = 0.95	129.012
274.99 K, 11996 kPa, x2 = 0.5001	74.789
274.99 K, 12001 kPa, x2 = 0.9	132.405
274.99 K, 12003 kPa, x2 = 0.95	140.289
274.99 K, 13000 kPa, x2 = 0.5001	80.586
274.99 K, 13002 kPa, x2 = 0.9	142.866
274.99 K, 13002 kPa, x2 = 0.95	151.394
274.99 K, 13998 kPa, x2 = 0.5001	86.267
